Test results from patent US20120214840A1, “INDOLIZINE INHIBITORS OF 5-LIPOXYGENASE” (PANMIRA PHARMACEUTICALS, LLC, priority 2009, published 2012).

What follows are compounds tested on LTB4 in human leukocytes (assay: Human Leukocyte LTB4 Inhibition Assay). Conditions: Leukocyte, 0.5 h; human leukocytes stimulated with calcium ionophore, 30 minutes at 37° C., LTB4 by ELISA; read-out: LTB4 HLA IC50.
Type: cell-based
Description: A non-limiting example of a human leukocyte inhibition assay is as follows: Blood was drawn from consenting human volunteers into heparanized tubes and 3% dextran 0.9% saline ⅓ rd volume added. After sedimentation of red blood cells a hypotonic lysis of remaining red blood cells was performed and leukocytes sedimented at 1200 rpm. The pellet was resuspended at 1.25×10^5 cells/ml and aliquoted into wells containing 1 μL 100% DMSO (vehicle) or 2.5 μL drug in 100% DMSO. Samples were incubated for 5 minutes at 37° C. and 2 μL calcium ionophore […] (from a 50 mM DMSO stock diluted just prior to the assay in Hanks balanced salt solution (Invitrogen)) to 1.25 mM) was added, solutions mixed and incubated for 30 minutes at 37° C. Samples were centrifuged at 1,200 rpm (˜200×g) for 10 minutes at 4° C., plasma removed and a 1:4 dilution assayed for LTB4 concentration using ELISA (Assay Designs). Drug concentrations to achieve 50% inhibition (IC50's) of vehicle LTB4 were determined by nonlinear regression (Graphpad Prism) of % inhibition versus log drug concentration.

IC50 [nM]	SMILES
< 300	CCC(O)(c1cn(Cc2ccc3c(-c4ccc(F)cc4)c(C(N)=O)cn3c2)nn1)C(F)(F)F (single isomer, unassigned; enantiomer a) [Compound 1-5, 1-(4-Fluoro-phenyl)-6-[4-(1-hydroxy-1-trifluoromethyl-propyl)-[1,2,3]triazol-1-ylmethyl]-indolizine-2-carboxylic acid amide (Enantiomer A)]
< 300	CCOC(=O)c1cn2cc(Cn3cc(C(O)(CC)C(F)(F)F)nn3)ccc2c1-c1ccc(F)cc1 (centres unmarked) [Compound 1-1, 1-(4-Fluoro-phenyl)-6-[4-(1-hydroxy-1-trifluoromethyl-propyl)-[1,2,3]-triazol-1-ylmethyl]-indolizine-2-carboxylic acid ethyl ester]
< 300	CCC(O)(c1cn(Cc2ccc3c(-c4ccc(F)cc4)c(C(N)=O)cn3c2)nn1)C(F)(F)F (centres unmarked) [Compound 1-2, 1-(4-Fluoro-phenyl)-6-[4-(1-hydroxy-1-trifluoromethyl-propyl)-[1,2,3]triazol-1-ylmethyl]-indolizine-2-carboxylic acid amide]
< 300	CCC(O)(c1cn(Cc2ccc3c(-c4ccc(F)cc4)c(C#N)cn3c2)nn1)C(F)(F)F (centres unmarked) [Compound 1-3, 1-(4-Fluoro-phenyl)-6-[4-(1-hydroxy-1-trifluoromethyl-propyl)-[1,2,3]triazol-1-ylmethyl]-indolizine-2-carbonitrile]
< 300	CCOC(=O)c1cn2cc(CNc3nnc(C(O)(CC)C(F)(F)F)o3)ccc2c1-c1ccc(F)cc1 (centres unmarked) [Compound 1-4, 1-(4-Fluoro-phenyl)-6-{[5-(1-hydroxy-1-trifluoromethyl-propyl)-[1,3,4]oxadiazol-2-ylamino]-methyl}-indolizine-2-carboxylic acid ethyl ester]
< 300	C=C(C)c1c(C(=O)OCC)cn2cc(Cn3cc(C(O)(CC)C(F)(F)F)nn3)ccc12 (centres unmarked) [Compound 1-7, 6-[4-(1-Hydroxy-1-trifluoromethyl-propyl)-[1,2,3]triazol-1-ylmethyl]-1-isopropenyl-indolizine-2-carboxylic acid ethyl ester]
< 300	CCOC(=O)c1cn2cc(Cn3cc(C(O)(CC)C(F)(F)F)nn3)ccc2c1C(C)C (centres unmarked) [Compound 1-8, 6-[4-(1-Hydroxy-1-trifluoromethyl-propyl)-[1,2,3]triazol-1-ylmethyl]-1-isopropyl-indolizine-2-carboxylic acid ethyl ester]
> 1000	CCC(O)(c1cn(Cc2ccc3c(C(C)C)c(C(N)=O)cn3c2)nn1)C(F)(F)F (centres unmarked) [Compound 1-9, 6-[4-(1-Hydroxy-1-trifluoromethyl-propyl)-[1,2,3]triazol-1-ylmethyl]-1-isopropyl-indolizine-2-carboxylic acid amide]
< 300	CCC(O)(c1cn(Cc2ccc3c(C(C)C)c(C#N)cn3c2)nn1)C(F)(F)F (centres unmarked) [Compound 1-10, 6-[4-(1-Hydroxy-1-trifluoromethyl-propyl)-[1,2,3]triazol-1-ylmethyl]-1-isopropyl-indolizine-2-carbonitrile]
< 300	CCC(O)(c1cn(Cc2ccc3c(-c4ccc(F)cc4)c(C#N)nn3c2)nn1)C(F)(F)F (centres unmarked) [Compound 1-11, 3-(4-Fluoro-phenyl)-6-[4-(1-hydroxy-1-trifluoromethyl-propyl)-[1,2,3]triazol-1-ylmethyl]-pyrazolo[1,5-a]pyridine-2-carbonitrile]
< 300	CCC(O)(c1cn(Cc2ccc3c(-c4ccc(F)cc4)c(C(N)=O)nn3c2)nn1)C(F)(F)F (centres unmarked) [Compound 1-12, 3-(4-Fluoro-phenyl)-6-[4-(1-hydroxy-1-trifluoromethyl-propyl)-[1,2,3]-triazol-1-ylmethyl]-pyrazolo[1,5-a]pyridine-2-carboxylic acid amide]
< 300	CCOC(=O)c1cn2cc(Cn3cc(C(O)(CC)C(F)(F)F)nn3)ccc2c1-c1ccc(OC)nc1 (centres unmarked) [Compound 1-13, 6-[4-(1-Hydroxy-1-trifluoromethyl-propyl)-[1,2,3]triazol-1-ylmethyl]-1-(6-methoxy-pyridin-3-yl)-indolizine-2-carboxylic acid ethyl ester]
< 300	CCC(O)(c1cn(Cc2ccc3c(-c4ccc(OC)nc4)c(C(N)=O)cn3c2)nn1)C(F)(F)F (centres unmarked) [Compound 1-14, 6-[4-(1-Hydroxy-1-trifluoromethyl-propyl)-[1,2,3]triazol-1-ylmethyl]-1-(6-methoxy-pyridin-3-yl)-indolizine-2-carboxylic acid amide]

Same assay, conditions: human leukocytes stimulated with calcium ionophore, 30 minutes at 37° C., LTB4 by ELISA; read-out: LTB4 HLA IC50

IC50 [nM]	SMILES
< 300	CCC(O)(c1cn(Cc2ccc3c(-c4ccc(F)cc4)c(C(N)=O)cn3c2)nn1)C(F)(F)F (single isomer, unassigned; enantiomer b) [Compound 1-6, 1-(4-Fluoro-phenyl)-6-[4-(1-hydroxy-1-trifluoromethyl-propyl)-[1,2,3]triazol-1-ylmethyl]-indolizine-2-carboxylic acid amide (Enantiomer B)]
